Results: patent publication US12503469B2, “Forms of methyl {4,6-diamino-2-[1-(2-fluorobenzyl)-1H-pyrazolo[3-4-b]pyridino-3-yl]pyrimidino-5-yl} methyl carbamate” (Adverio Pharma GmbH, priority 2013, dated 2025)

Experiment: Solid-state stability of the forms of the compound of formula (I)
Type: physicochemical

Which “thermodynamic stability of the form” value (between 0° C. and 80° C.) does the source give for `COC(=O)N(C)c1c(N)nc(-c2nn(Cc3ccccc3F)c3ncccc23)nc1N` [Modification I, methyl {4,6-diamino-2-[1-(2-fluorobenzyl)-1H-pyrazolo[3,4-b]pyridino-3-yl]pyrimidino-5-yl}methylcarbamate] here?
Its value is “thermodynamically stable form between 0 °C and 80 °C”.

For `COC(=O)N(C)c1c(N)nc(-c2nn(Cc3ccccc3F)c3ncccc23)nc1N` [amorphous form, methyl {4,6-diamino-2-[1-(2-fluorobenzyl)-1H-pyrazolo[3,4-b]pyridin-3-yl]pyrimidin-5-yl}methylcarbamate], which “stability of the amorphous form against crystallization” value (room temperature) is on record?
The value was “can exist at room temperature, but crystallizes very quickly”.
